# Source: patent publication US20130078287A1 (Horizon Pharma USA, Inc., priority 2010, published 2013)
# Marks after values point to notes of the source that are not given here.
# Tested on: subjects who completed REDUCE-1 or REDUCE-2 without ulcer
# Assay: Follow-on safety study (28 weeks) after REDUCE-1 or REDUCE-2: adverse events
# [1] = TEAE, follow-on study, Preferred Term
# [2] = TEAE, follow-on study, System Organ Class
compound,measurement,setting,value
"CC(C)Cc1ccc(C(C)C(=O)O)cc1 (centres unmarked) [Ibuprofen, 2-(p-isobutylphenyl)propionic acid]","AEs Leading to Discontinuation, Incidence (%)",Follow-on Study,2.1%
same,"AEs by Relatedness: Possibly Related, Incidence (%)",Follow-on Study,8.5%
same,"AEs by Relatedness: Probably Not Related, Incidence (%)",Follow-on Study,25.5%
same,"AEs by Severity: Life Threatening, Incidence (%)",Follow-on Study,0.0%
same,"AEs by Severity: Mild, Incidence (%)",Follow-on Study,10.6%
same,"AEs by Severity: Moderate, Incidence (%)",Follow-on Study,19.1%
same,"AEs by Severity: Severe, Incidence (%)",Follow-on Study,4.3%
same,"Abdominal Pain Upper, Incidence (%)",Follow-on Study,0.0 (0) %
same,"Abdominal Tenderness, Incidence %",Follow-on Study,2.1 (0) %
same,"Any GI Event, Incidence (%)",Follow-on Study,4.3 (2)* %
same,"Constipation, Incidence (%)",Follow-on Study,0.0 (0) %
same,"Deaths, Incidence %",Follow-on Study,0.0(0) %
same,"Diarrhea, Incidence (%)",Follow-on Study,2.1 (1) %
same,"Dyspepsia, Incidence (%)",Follow-on Study,0.0 (0) %
same,"General Disorders/Administrative Site Conditions, Incidence (%)",Follow-on Study,4.3(2) %
same,"Hepatobiliary Disorders, Incidence (%)",Follow-on Study,2.1(1) %
same,"Hypertension, Incidence (%)",Follow-on Study,0.0(0) %
same,"Infections/Infestations, Incidence (%)",Follow-on Study,14.9(7) %
same,"Injury, Poisoning, Procedural Complications, Incidence (%)",Follow-on Study,4.3(2) %
same,"Metabolism and Nutrition Disorders, Incidence %",Follow-on Study,8.5(4)* %
same,"Musculoskeletal/connective Tissue Disorders, Incidence (%)",Follow-on Study,2.1(1) %
same,"Nausea, Incidence (%)",Follow-on Study,0.0 (0) %
same,"Nervous System Disorders, Incidence (%)",Follow-on Study,4.3(2) %
same,"Respiratory, Thoracic and Mediastinal Disorders, Incidence (%)",Follow-on Study,2.1(1) %
same,"SAEs leading to discontinuation, Incidence %",Follow-on Study,0.0(0) %
same,"Subjects with at least one AE, Incidence (%)",Follow-on Study,34.0%
same,"Total SAEs, Incidence %",Follow-on Study,4.3(2) %
same,"Withdrawals due to GI, Incidence (%)",Follow-on Study,0.0 (0) %
same,Abdominal discomfort,[1],2.1 (1) % (n)
same,Abdominal distension,[1],0.0 (0) % (n)
same,Abdominal pain,[1],2.1 (1) % (n)
same,Abdominal pain upper,[1],2.1 (1) % (n)
same,Abdominal tenderness,[1],2.1 (1) % (n)
same,Accidental overdose,[1],2.1 (1) % (n)
same,Anaemia,[1],2.1 (1) % (n)
same,Animal bite,[1],0.0 (0) % (n)
same,Anxiety,[1],2.1 (1) % (n)
same,Arthralgia,[1],4.3 (2) % (n)
same,Asthma,[1],0.0 (0) % (n)
same,Back pain,[1],0.0 (0) % (n)
same,Blood creatinine increased,[1],0.0 (0) % (n)
same,Blood pressure increased,[1],0.0 (0) % (n)
same,Bronchitis,[1],2.1 (1) % (n)
same,Bronchitis acute,[1],2.1 (1) % (n)
same,Carpal tunnel syndrome,[1],0.0 (0) % (n)
same,Cataract,[1],2.1 (1) % (n)
same,Cholelithiasis,[1],2.1 (1) % (n)
same,Conjunctivitis,[1],2.1 (1) % (n)
same,Constipation,[1],4.3 (2) % (n)
same,Contusion,[1],2.1 (1) % (n)
same,Cough,[1],0.0 (0) % (n)
same,Dermatitis,[1],2.1 (1) % (n)
same,Dermatitis contact,[1],2.1 (1) % (n)
same,Diabetes mellitus,[1],2.1 (1) % (n)
same,Diabetes mellitus non-insulin-dependent,[1],2.1 (1) % (n)
same,Diarrhoea,[1],8.5 (4) % (n)
same,Dizziness,[1],2.1 (1) % (n)
same,Dyspepsia,[1],2.1 (1) % (n)
same,Ear infection,[1],2.1 (1) % (n)
same,Eczema,[1],2.1 (1) % (n)
same,Fall,[1],2.1 (1) % (n)
same,Flatulence,[1],2.1 (1) % (n)
same,Folliculitis,[1],2.1 (1) % (n)
same,Foot fracture,[1],2.1 (1) % (n)
same,Gait disturbance,[1],2.1 (1) % (n)
same,Gastritis,[1],2.1 (1) % (n)
same,Gastroenteritis,[1],0.0 (0) % (n)
same,Gastroenteritis viral,[1],4.3 (2) % (n)
same,Gastrooesophageal reflux disease,[1],2.1 (1) % (n)
same,Headache,[1],0.0 (0) % (n)
same,Hypercholesterolaemia,[1],2.1 (1) % (n)
same,Hyperglycaemia,[1],2.1 (1) % (n)
same,Hyperlipidaemia,[1],2.1 (1) % (n)
same,Hyperosmolar state,[1],2.1 (1) % (n)
same,Hypertension,[1],2.1 (1) % (n)
same,Influenza,[1],2.1 (1) % (n)
same,Intestinal spasm,[1],2.1 (1) % (n)
same,Joint injury,[1],2.1 (1) % (n)
same,Joint sprain,[1],2.1 (1) % (n)
same,Joint swelling,[1],2.1 (1) % (n)
same,Knee deformity,[1],2.1 (1) % (n)
same,Laryngitis,[1],4.3 (2) % (n)
same,Limb crushing injury,[1],2.1 (1) % (n)
same,Lower respiratory tract infection,[1],4.3 (2) % (n)
same,Migraine,[1],2.1 (1) % (n)
same,Mood swings,[1],2.1 (1) % (n)
same,Muscle spasms,[1],0.0 (0) % (n)
same,Musculoskeletal pain,[1],4.3 (2) % (n)
same,Nasopharyngitis,[1],2.1 (1) % (n)
same,Nausea,[1],4.3 (2) % (n)
same,Neck injury,[1],2.1 (1) % (n)
same,Neck pain,[1],2.1 (1) % (n)
same,Nerve compression,[1],2.1 (1) % (n)
same,Non-cardiac chest pain,[1],2.1 (1) % (n)
same,Oedema peripheral,[1],6.4 (3) % (n)
same,Oesophageal stenosis,[1],2.1 (1) % (n)
same,Otitis media,[1],0.0 (0) % (n)
same,Pharyngolaryngeal pain,[1],2.1 (1) % (n)
same,Plantar fasciitis,[1],2.1 (1) % (n)
same,Pneumonia,[1],2.1 (1) % (n)
same,Rib fracture,[1],4.3 (2) % (n)
same,Road traffic accident,[1],2.1 (1) % (n)
same,Sinusitis,[1],2.1 (1) % (n)
same,Skin laceration,[1],2.1 (1) % (n)
same,Stomach discomfort,[1],0.0 (0) % (n)
same,Swelling face,[1],0.0 (0) % (n)
same,Tendon injury,[1],0.0 (0) % (n)
same,Tendonitis,[1],2.1 (1) % (n)
same,Throat irritation,[1],2.1 (1) % (n)
same,Tinnitus,[1],2.1 (1) % (n)
same,Tooth abscess,[1],0.0 (0) % (n)
same,Tooth infection,[1],2.1 (1) % (n)
same,Toothache,[1],2.1 (1) % (n)
same,Traumatic brain injury,[1],2.1 (1) % (n)
same,Upper respiratory tract infection,[1],6.4 (3) % (n)
same,Urinary tract infection,[1],0.0 (0) % (n)
same,Urticaria,[1],2.1 (1) % (n)
same,Viral upper respiratory tract infection,[1],2.1 (1) % (n)
same,Vomiting,[1],4.3 (2) % (n)
same,Wheezing,[1],0.0 (0) % (n)
same,Ear and labyrinth disorders,[2],2.1 (1) % (n)
same,Eye disorders,[2],4.3 (2) % (n)
same,Gastrointestinal disorders,[2],23.4 (11) % (n)
same,General disorders and administration site conditions,[2],6.4 (3) % (n)
same,Hepatobiliary disorders,[2],2.1 (1) % (n)
same,Immune system disorders,[2],0.0 (0) % (n)
same,Infections and infestations,[2],36.2 (17) % (n)
same,"Injury, poisoning and procedural complications",[2],17.0 (8) % (n)
same,Investigations,[2],0.0 (0) % (n)
same,Metabolism and nutrition disorders,[2],8.5 (4) % (n)
same,"Neoplasms benign, malignant and unspecified (incl. cysts and polyps)",[2],0.0 (0) % (n)
same,Nervous system disorders,[2],6.4 (3) % (n)
same,Psychiatric disorders,[2],4.3 (2) % (n)
same,Renal and urinary disorders,[2],0.0 (0) % (n)
same,"Respiratory, thoracic and mediastinal disorders",[2],4.3 (2) % (n)
same,Vascular disorders,[2],2.1 (1) % (n)
same,Total Subjects With at Least One TEAE,"follow-on study, safety follow-on population, HZT-501 N = 132, Ibuprofen N = 47",68.1 (32) % (n)
